This is an account of results in ChEMBL document CHEMBL4811216, “Chemotherapy for human schistosomiasis: how far have we come? What's new? Where do we go from here?” (RSC Med Chem, 2020).

SMILES strings stand for the structures.

Assay [1] concerns Schistosoma japonicum. The experiment in a line: Antischistosomal activity against Schistosoma japonicum assessed as worm mortality at 10 ug/ml incubated for 72 hrs by microscopic method relative to control. The class given is functional. As to conditions: dose 10 µg/ml.
Assay [2] has as its system Schistosoma mansoni. The experiment in a line: Antischistosomal activity against adult Schistosoma mansoni assessed as worm death at 10 uM incubated for 120 hrs relative to control. The format is functional.
For assay [3], the system named is Schistosoma japonicum. The experiment in a line: Antischistosomal activity against Schistosoma japonicum assessed as worm death at 10 uM incubated for 120 hrs relative to control. The class given is functional. As to conditions: Schistosoma japonicum.
The test system of assay [4] is Schistosoma mansoni. Briefly: Antischistosomal activity against Schistosoma mansoni Schistosomula assessed as worm death at 10 uM incubated for 24 hrs relative to control. The class given is functional.
Assay [5] has as its system Schistosoma mansoni. Briefly: Antischistosomal activity against juvenile Schistosoma mansoni assessed as worm death at 10 uM incubated for 120 hrs relative to control. The class given is functional.
The target of assay [6] is T1, Thioredoxin glutathione reductase (Schistosoma mansoni, UniProt Q962Y6).
T1 sequence (Q962Y6 whole entry): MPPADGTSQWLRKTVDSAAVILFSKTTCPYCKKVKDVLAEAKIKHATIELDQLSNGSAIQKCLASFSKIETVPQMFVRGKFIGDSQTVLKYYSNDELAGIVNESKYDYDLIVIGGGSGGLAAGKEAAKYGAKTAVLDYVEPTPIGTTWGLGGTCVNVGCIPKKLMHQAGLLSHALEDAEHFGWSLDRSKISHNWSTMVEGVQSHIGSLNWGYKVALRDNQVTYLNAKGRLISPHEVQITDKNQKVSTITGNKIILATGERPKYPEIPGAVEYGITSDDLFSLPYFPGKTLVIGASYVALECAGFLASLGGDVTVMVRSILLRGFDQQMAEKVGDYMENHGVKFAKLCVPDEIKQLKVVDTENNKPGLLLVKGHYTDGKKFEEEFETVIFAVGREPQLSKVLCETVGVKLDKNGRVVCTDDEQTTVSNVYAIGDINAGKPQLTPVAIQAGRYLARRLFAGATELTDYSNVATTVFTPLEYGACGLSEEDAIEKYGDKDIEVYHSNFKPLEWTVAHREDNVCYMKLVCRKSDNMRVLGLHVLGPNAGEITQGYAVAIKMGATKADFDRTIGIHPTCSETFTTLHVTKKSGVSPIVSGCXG
The experiment in a line: Inhibition of Schistosoma mansoni thioredoxin glutathione reductase incubated for 30 mins by DTNB assay.

The test system of the next assay is Schistosoma haematobium. The experiment in a line: Antischistosomal activity against Schistosoma haematobium assessed as worm death at 10 uM incubated for 120 hrs relative to control. The class given is functional.
For assay [7], the system named is Schistosoma mansoni. Briefly: Antischistosomal activity against Schistosoma mansoni infected in NMRI mouse assessed as worm burden reduction at 100 mg/kg, po administered as single dose relative to control. The format is functional. More on the design: scale not given: the % may be the effect or the level left.
In assay [8] the test system is Schistosoma mansoni. The experiment in a line: Antischistosomal activity against Schistosoma mansoni LE assessed as worm mortality at 20 uM incubated for 72 hrs by microscopic method relative to control. The format is functional.
The test system of assay [9] is Schistosoma japonicum. Briefly: Schistosomicidal-activity against adult Schistosoma japonicum at 10 uM incubated for 72 hrs by inverted microscopic method relative to control. The format is functional.
Assay [10] relates to Schistosoma japonicum. The experiment in a line: Antischistosomal activity against Schistosoma japonicum infected in ICR mouse assessed as total worm reduction at 250 mg/kg, po administered as single dose relative to control. The format is functional. More on the design: scale not given: the % may be the effect or the level left.
Another assay deals with Histone deacetylase 1 (Homo sapiens, UniProt Q13547). Briefly: Inhibition of human HDAC1 (1 to 482 reidue) expressed in sf9 cells using ZMAL(Cbz-(Ac)Lys-AMC as substrate preincubated for 90 mins followed by trypsin addition and measured after 20 mins by fluorimetric method.
Chain of Histone deacetylase 1 (Q13547 whole entry): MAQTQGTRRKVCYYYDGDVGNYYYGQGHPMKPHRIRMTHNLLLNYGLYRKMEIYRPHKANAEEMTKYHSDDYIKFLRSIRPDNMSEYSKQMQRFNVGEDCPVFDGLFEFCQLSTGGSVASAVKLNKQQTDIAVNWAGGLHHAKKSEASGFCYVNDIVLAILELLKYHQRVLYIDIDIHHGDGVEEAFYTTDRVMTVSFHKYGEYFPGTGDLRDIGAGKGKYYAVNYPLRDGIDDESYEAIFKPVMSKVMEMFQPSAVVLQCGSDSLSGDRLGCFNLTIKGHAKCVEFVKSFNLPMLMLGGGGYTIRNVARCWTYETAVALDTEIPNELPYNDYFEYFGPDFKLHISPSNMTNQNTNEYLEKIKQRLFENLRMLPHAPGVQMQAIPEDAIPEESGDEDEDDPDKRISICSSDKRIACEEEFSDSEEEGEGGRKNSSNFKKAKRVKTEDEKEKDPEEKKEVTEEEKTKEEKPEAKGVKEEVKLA
The target in assay [11] is T2, Histone deacetylase 8 (Homo sapiens, UniProt Q9BY41).
T2 sequence (Q9BY41 whole entry): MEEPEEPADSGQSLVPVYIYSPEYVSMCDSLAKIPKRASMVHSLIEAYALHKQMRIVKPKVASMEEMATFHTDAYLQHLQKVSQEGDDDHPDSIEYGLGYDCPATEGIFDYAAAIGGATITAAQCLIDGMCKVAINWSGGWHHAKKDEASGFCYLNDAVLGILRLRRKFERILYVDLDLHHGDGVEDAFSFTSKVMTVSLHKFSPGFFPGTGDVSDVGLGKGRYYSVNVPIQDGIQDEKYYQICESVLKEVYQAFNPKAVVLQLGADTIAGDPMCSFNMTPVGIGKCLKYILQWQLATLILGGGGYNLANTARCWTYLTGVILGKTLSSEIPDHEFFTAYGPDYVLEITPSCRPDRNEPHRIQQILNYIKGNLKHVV
Briefly: Inhibition of human HDAC8 using Fluor de Lys as substrate incubated for 90 mins by fluorescence method.

In assay [12] the target is T3, Histone deacetylase 8 (Schistosoma mansoni, UniProt A5H660).
T3 sequence (A5H660 whole entry): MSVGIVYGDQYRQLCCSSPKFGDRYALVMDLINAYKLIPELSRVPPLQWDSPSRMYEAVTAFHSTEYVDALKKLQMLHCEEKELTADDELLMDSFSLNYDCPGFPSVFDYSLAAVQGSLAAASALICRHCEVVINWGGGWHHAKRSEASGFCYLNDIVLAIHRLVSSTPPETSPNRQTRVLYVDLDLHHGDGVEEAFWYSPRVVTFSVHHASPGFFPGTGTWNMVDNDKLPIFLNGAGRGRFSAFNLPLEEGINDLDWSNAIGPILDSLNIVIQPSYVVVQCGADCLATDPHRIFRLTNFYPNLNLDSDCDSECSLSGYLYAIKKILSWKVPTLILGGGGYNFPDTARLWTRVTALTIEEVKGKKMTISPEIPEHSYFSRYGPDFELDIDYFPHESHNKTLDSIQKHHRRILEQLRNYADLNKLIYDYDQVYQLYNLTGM
The experiment in a line: Inhibition of Schistosoma mansoni HDAC8 expressed in Escherichia coli using Fluor de Lys as substrate incubated for 90 mins by fluorescence method.

For assay [13], the system named is Schistosoma mansoni. Briefly: Schistosomicidal-activity against Schistosoma mansoni schistosomula incubated for 48 hrs by Alamar Blue assay. The format is functional, organism-based.
For assay [14], the system named is Schistosoma mansoni. The experiment in a line: Schistosomicidal-activity against Schistosoma mansoni schistosomula at 20 uM incubated for 48 hrs by Alamar Blue assay relative to control. The class given is functional. (Alamar Blue is a resazurin reagent that responds to reducing activity.)
Assay [15] addresses T4, Protein deacetylase HDAC6 (Homo sapiens, UniProt Q9UBN7).
T4 sequence (Q9UBN7 whole entry): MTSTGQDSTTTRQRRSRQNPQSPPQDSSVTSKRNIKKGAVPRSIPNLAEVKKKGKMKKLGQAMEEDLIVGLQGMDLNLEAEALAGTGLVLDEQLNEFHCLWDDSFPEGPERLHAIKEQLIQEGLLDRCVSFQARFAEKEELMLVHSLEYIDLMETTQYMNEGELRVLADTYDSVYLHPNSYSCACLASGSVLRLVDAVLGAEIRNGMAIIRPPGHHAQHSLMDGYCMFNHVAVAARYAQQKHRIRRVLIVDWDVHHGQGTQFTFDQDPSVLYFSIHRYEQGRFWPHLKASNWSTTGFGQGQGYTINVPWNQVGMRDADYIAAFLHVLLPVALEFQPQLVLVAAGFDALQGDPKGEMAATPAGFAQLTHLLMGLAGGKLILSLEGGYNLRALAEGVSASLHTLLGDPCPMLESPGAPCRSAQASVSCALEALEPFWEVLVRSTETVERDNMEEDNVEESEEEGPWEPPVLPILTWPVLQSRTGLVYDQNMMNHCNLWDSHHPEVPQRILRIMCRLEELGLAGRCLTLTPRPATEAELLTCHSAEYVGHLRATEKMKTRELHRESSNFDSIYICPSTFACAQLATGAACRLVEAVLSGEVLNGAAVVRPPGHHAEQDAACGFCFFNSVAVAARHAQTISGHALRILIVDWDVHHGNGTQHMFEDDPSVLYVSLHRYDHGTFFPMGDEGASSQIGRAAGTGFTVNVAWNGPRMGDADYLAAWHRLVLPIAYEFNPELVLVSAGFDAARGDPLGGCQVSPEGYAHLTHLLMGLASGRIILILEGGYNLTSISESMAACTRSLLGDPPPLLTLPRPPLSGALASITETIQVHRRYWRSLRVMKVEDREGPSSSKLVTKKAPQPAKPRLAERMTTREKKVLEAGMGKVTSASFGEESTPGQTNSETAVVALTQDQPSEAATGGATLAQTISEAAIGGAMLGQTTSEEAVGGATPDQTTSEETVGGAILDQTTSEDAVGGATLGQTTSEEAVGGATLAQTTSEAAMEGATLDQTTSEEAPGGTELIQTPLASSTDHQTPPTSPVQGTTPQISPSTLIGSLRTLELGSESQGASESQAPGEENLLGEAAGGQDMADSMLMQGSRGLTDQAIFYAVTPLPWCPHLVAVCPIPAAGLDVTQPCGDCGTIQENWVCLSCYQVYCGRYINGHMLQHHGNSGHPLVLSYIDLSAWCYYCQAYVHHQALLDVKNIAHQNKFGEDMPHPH
The experiment in a line: Inhibition of human HDAC6 using ZMAL(Cbz-(Ac)Lys-AMC as substrate preincubated for 90 mins followed by trypsin addition and measured after 20 mins by fluorimetric method.

Take `OC(CN1CCCC1)Cn1c2ccc(Cl)cc2c2cc(Cl)ccc21` (centres undefined): in the assay on Schistosoma japonicum [1], the Activity worked out at 100%.
For orientation: mortality means the share of the test organisms that died. The IC50 is the concentration at which inhibition is half-maximal. Consider `COc1ccc([N+](=O)[O-])c(S(=O)(=O)c2ccc(Cl)cc2)n1`, for which the mortality at 10 µM in the assay with Schistosoma mansoni [2] was 67%; with Schistosoma japonicum [3], 30%; with Schistosoma mansoni [4], 100%; in the assay with Schistosoma mansoni [5], 57%; with Schistosoma haematobium, 48%. Further, the IC50 in assay [6] amounted to 0.06 µM.
Consider `CC(C)NCC1CCc2cc(CO)c([N+](=O)[O-])cc2N1` (centres undefined) [OXAMNIQUINE], for which the Activity in the assay with Schistosoma mansoni [7] is 99.2%.
In the case of `OC(CN1CCCCC1)Cn1c2ccc(Cl)cc2c2cc(Cl)ccc21` (centres undefined), the Activity in the assay with Schistosoma japonicum [1] was 100%.
Regarding `CN(C)c1ccc(/C=C2\NC(=O)N(Cc3c(F)cccc3Cl)C2=S)cc1`, in the assay with Schistosoma mansoni [8], the Activity was found to be 100%.
With `O=C(CCl)N1CC(=O)N2CCc3sccc3C2C1` (centres undefined), the Activity in the assay with Schistosoma japonicum [9] is listed as 100%.
For `O=C(C1CCCCC1)N1CC(=O)N2CCc3ccccc3C2C1` (centres undefined) [PRAZIQUANTEL], the Activity in the assay on Schistosoma japonicum [10] was found to be 62.4%; with Schistosoma japonicum [9] it was 37.5%.
One may read the EC50 as the concentration giving half of the maximal effect. In the case of `O=C(/C=C/c1ccccc1Oc1c(Cl)cccc1Cl)NO`, the IC50 against Histone deacetylase 1 was 20.2 µM; at Histone deacetylase 8 [11], 0.47 µM; on Histone deacetylase 8 [12] it was 0.44 µM; in [15], 8.2 µM. Further, in the assay on Schistosoma mansoni [13], the concentration giving a half-maximal response (EC50) amounted to 6.5 µM. Besides, in the assay with Schistosoma mansoni [14], the Activity came to 89%.
